Experimental data reported in EP0908457B1, “3-(1,2-benzisothiazol- and isoxazol-5-Y1)-2,4(1H,3H)-pyrimidinedione or thione and 3-(1,2-benzisothiazol- and isoxazol-5-y1)-4(3H)-pyrimidinone or thione herbicidal agents” (BASF AKTIENGESELLSCHAFT, priority 1997, dated 1999).

Experiments:
[1] = system: Cyperus serotinus, Rottb.; experiment: Preemergence weed control under flooded paddy conditions, CYPSE (Flatsedge); type: in vivo; details: for herbicidal effect rating, CYPSE / CYPSE herbicidal effect rating: rated three to four weeks after treatment; for CYPSE: herbicidal effect rating 0-9, three to four weeks after treatment; on herbicidal effect rating, CYPSE: meaning of each grade not given here
Cyperus iria = experiment: Preemergence weed control under flooded paddy conditions, CYPIR (Rice Flatsedge); type: in vivo; details: flooded paddy; for herbicidal effect rating, CYPIR / CYPIR herbicidal effect rating: rated three to four weeks after treatment; for CYPIR: herbicidal effect rating 0-9, three to four weeks after treatment; on herbicidal effect rating, CYPIR: meaning of each grade not given here
Sagittaria pygmaea, L. = experiment: Preemergence weed control under flooded paddy conditions, SAGPY (Arrowhead (Pygmaea)); type: in vivo; details: flooded paddy; for herbicidal effect rating, SAGPY / SAGPY herbicidal effect rating: rated three to four weeks after treatment; for SAGPY: herbicidal effect rating 0-9, three to four weeks after treatment; on herbicidal effect rating, SAGPY: meaning of each grade not given here
[2] = system: Monochoria vaginalis, Presl.; experiment: Preemergence weed control under flooded paddy conditions, MOOVA (Monochoria); type: in vivo; details: flooded paddy; for herbicidal effect rating, MOOVA / MOOVA herbicidal effect rating: rated three to four weeks after treatment; for MOOVA: herbicidal effect rating 0-9, three to four weeks after treatment; on herbicidal effect rating, MOOVA: meaning of each grade not given here
[3] = system: Oryza sativa, (L.) Tebonnet; experiment: Rice tolerance to post-transplant applications under flooded paddy conditions (Example 187), ORYSAT (Rice, Tebonnet); details: for herbicidal effect rating, ORYSAT (rice tolerance) / herbicidal effect rating ORYSAT / ORYSAT herbicidal effect rating: rated three to four weeks after treatment; for ORYSAT: herbicidal effect rating 0-9, three to four weeks after treatment
[4] = system: Echinochloa oryzoides (Ard.) Fritsch.; experiment: Preemergence weed control under flooded paddy conditions, ECHORC (Watergrass (Calif.)); type: in vivo; details: flooded paddy; for herbicidal effect rating, ECHORC / ECHORC herbicidal effect rating: rated three to four weeks after treatment; for ECHORC: herbicidal effect rating 0-9, three to four weeks after treatment; on herbicidal effect rating, ECHORC: meaning of each grade not given here
[5] = 0.0313 kg/ha, preemergence weeds
[6] = 0.0625 kg/ha, preemergence weeds
[7] = 0.1250 kg/ha, preemergence weeds
[8] = 0.2500 kg/ha, preemergence weeds
[9] = Rate 0.0320 kg/ha, preemergence
[10] = Rate 0.2500 kg/ha, preemergence
[11] = Rate 0.0620 kg/ha, preemergence
[12] = Rate 0.1250 kg/ha, preemergence
[13] = 0.0320 kg/ha, preemergence weeds
[14] = 0.0620 kg/ha, preemergence weeds
[15] = Rate 0.5000 kg/ha, preemergence
[16] = Rate 0.0320 kg/ha, preemergence weeds
[17] = Rate 0.0620 kg/ha, preemergence weeds
[18] = Rate 0.1250 kg/ha, preemergence weeds
[19] = Rate 0.2500 kg/ha, preemergence weeds

C=CC(C)OCc1nsc2ccc(-n3c(=O)cc(C(F)(F)F)n(C)c3=O)cc12 (stereo not shown) [Example 206, 1-Methyl-3-{3-[(1-methylallyloxy)methyl]-1,2-benzisothiazol-5-yl]-6-(trifluoromethyl)-2,4(1H,3H)-pyrimidinedione]
6.0: herbicidal effect rating, ORYSAT (rice tolerance) ([3]; 0.0625 kg/ha)
1.0: herbicidal effect rating, SAGPY (Sagittaria pygmaea, L.; [7]) | herbicidal effect rating, MOOVA [2, 7]
2.0: herbicidal effect rating, CYPSE [1, 6] | herbicidal effect rating, ECHORC [4, 6] | herbicidal effect rating, ECHORC [4, 7]
0.0: herbicidal effect rating, CYPSE [1, 5] | herbicidal effect rating, SAGPY (Sagittaria pygmaea, L.; [5]) | herbicidal effect rating, SAGPY (Sagittaria pygmaea, L.; [6]) | herbicidal effect rating, MOOVA [2, 5] | herbicidal effect rating, MOOVA [2, 6] | herbicidal effect rating, ECHORC [4, 5]
5.0: herbicidal effect rating, ORYSAT (rice tolerance) ([3]; 0.0313 kg/ha)
9.0: herbicidal effect rating, CYPIR (Cyperus iria; [5]) | herbicidal effect rating, CYPIR (Cyperus iria; [6]) | herbicidal effect rating, CYPIR (Cyperus iria; [7]) | herbicidal effect rating, CYPIR (Cyperus iria; [8]) | herbicidal effect rating, ORYSAT (rice tolerance) ([3]; 0.2500 kg/ha) | herbicidal effect rating, ECHORC [4, 8]
4.0: herbicidal effect rating, SAGPY (Sagittaria pygmaea, L.; [8]) | herbicidal effect rating, MOOVA [2, 8]
7.0: herbicidal effect rating, CYPSE [1, 7] | herbicidal effect rating, CYPSE [1, 8] | herbicidal effect rating, ORYSAT (rice tolerance) ([3]; 0.1250 kg/ha)

Cn1c(C(F)(F)F)cc(=O)n(-c2ccc3snc(C(C#N)=Cc4ccc[nH]4)c3c2)c1=O [Example 598, 1,2-Benzisothiazole-3-acetonitrile, 5-[3,6-dihydro-3-methyl-2,6-dioxo-4-(trifluoromethyl)-1(2H)-pyrimidinyl]-alpha-(pyrrol-2-ylmethylene)-]
7.0: herbicidal effect rating, MOOVA [2, 12] | herbicidal effect rating, MOOVA [2, 10]
0.0: herbicidal effect rating, CYPSE [1, 9] | herbicidal effect rating, CYPSE [1, 10] | herbicidal effect rating, CYPIR (Cyperus iria; [9]) | herbicidal effect rating, CYPIR (Cyperus iria; [11]) | herbicidal effect rating, SAGPY (Sagittaria pygmaea, L.; [9]) | herbicidal effect rating, SAGPY (Sagittaria pygmaea, L.; [11]) | herbicidal effect rating, SAGPY (Sagittaria pygmaea, L.; [12]) | herbicidal effect rating, SAGPY (Sagittaria pygmaea, L.; [10]) | herbicidal effect rating ORYSAT ([3]; Rate 0.0320 kg/ha) | herbicidal effect rating ORYSAT ([3]; Rate 0.0620 kg/ha) | herbicidal effect rating, ECHORC [4, 9] | herbicidal effect rating, ECHORC [4, 11] | herbicidal effect rating, ECHORC [4, 12] | herbicidal effect rating, ECHORC [4, 10]
3.0: herbicidal effect rating, CYPIR (Cyperus iria; [10]) | herbicidal effect rating ORYSAT ([3]; Rate 0.1250 kg/ha) | herbicidal effect rating ORYSAT ([3]; Rate 0.2500 kg/ha)
2.0: herbicidal effect rating, CYPIR (Cyperus iria; [12])

Cc1ccc(OCC(=O)O)c(-c2noc3cc(F)c(-n4c(=O)cc(C(F)(F)F)n(C)c4=O)cc23)c1 [Example 425, Acetic acid, {{2-{5-[3,6-dihydro-3-methyl-2,6-dioxo-4-(trifluoromethyl)-1(2H)-pyrimidinyl]-6-fluoro-1,2-benzisoxazol-3-yl}-p-tolyl}oxy}-]
9.0: CYPIR (Cyperus iria; [8]) | MOOVA [2, 7] | MOOVA [2, 8] | ECHORC [4, 14] | ECHORC [4, 7] | ECHORC [4, 8]
3.0: CYPSE [1, 14] | CYPSE [1, 7] | CYPSE [1, 8] | SAGPY (Sagittaria pygmaea, L.; [7])
4.0: SAGPY (Sagittaria pygmaea, L.; [8]) | ORYSAT ([3]; 0.0320 kg/ha)
7.0: MOOVA [2, 14] | ORYSAT ([3]; 0.1250 kg/ha)
6.0: CYPIR (Cyperus iria; [7]) | MOOVA [2, 13] | ORYSAT ([3]; 0.0620 kg/ha) | ECHORC [4, 13]
0.0: CYPSE [1, 13] | CYPIR (Cyperus iria; [13]) | CYPIR (Cyperus iria; [14]) | SAGPY (Sagittaria pygmaea, L.; [13]) | SAGPY (Sagittaria pygmaea, L.; [14])
8.0: ORYSAT ([3]; 0.2500 kg/ha)

Cn1c(C(F)(F)F)cc(=O)n(-c2ccc3snc(-c4ccc(OCC(=O)OC(C)(C)C)cc4)c3c2)c1=O [Example 273, Acetic acid, {p-{5-[3,6-dihydro-3-methyl-2,6-dioxo-4-(trifluoromethyl)-1(2H)-pyrimidinyl]-1,2-benzisothiazol-3-yl}phenoxy}-, tert-butyl ester]
3.9: ECHORC herbicidal effect rating [4, 9]
7.0: CYPSE herbicidal effect rating [1, 10]
6.0: CYPIR herbicidal effect rating (Cyperus iria; [9]) | SAGPY herbicidal effect rating (Sagittaria pygmaea, L.; [10]) | ECHORC herbicidal effect rating [4, 12]
4.0: CYPIR herbicidal effect rating (Cyperus iria; [15]) | ORYSAT herbicidal effect rating ([3]; Rate 0.2500 kg/ha)
9.0: CYPSE herbicidal effect rating [1, 15] | CYPIR herbicidal effect rating (Cyperus iria; [11]) | CYPIR herbicidal effect rating (Cyperus iria; [12]) | CYPIR herbicidal effect rating (Cyperus iria; [10]) | MOOVA herbicidal effect rating [2, 9] | MOOVA herbicidal effect rating [2, 11] | MOOVA herbicidal effect rating [2, 12] | MOOVA herbicidal effect rating [2, 10] | MOOVA herbicidal effect rating [2, 15] | ECHORC herbicidal effect rating [4, 10] | ECHORC herbicidal effect rating [4, 15]
3.0: ORYSAT herbicidal effect rating ([3]; Rate 0.1250 kg/ha) | ORYSAT herbicidal effect rating ([3]; Rate 0.5000 kg/ha)
2.0: ORYSAT herbicidal effect rating ([3]; Rate 0.0620 kg/ha)
5.1: ECHORC herbicidal effect rating [4, 11]
0.0: CYPSE herbicidal effect rating [1, 9] | CYPSE herbicidal effect rating [1, 11] | SAGPY herbicidal effect rating (Sagittaria pygmaea, L.; [9]) | SAGPY herbicidal effect rating (Sagittaria pygmaea, L.; [11]) | SAGPY herbicidal effect rating (Sagittaria pygmaea, L.; [12]) | SAGPY herbicidal effect rating (Sagittaria pygmaea, L.; [15]) | ORYSAT herbicidal effect rating ([3]; Rate 0.0320 kg/ha)

COC(=O)COc1cccc(-c2nsc3ccc(-n4c(=O)cc(C(F)(F)F)n(C)c4=O)cc23)c1 [Example 332, Acetic acid, {m-{5-[3,6-dihydro-3-methyl-2,6-dioxo-4-(trifluoromethyl)-1(2H)-pyrimidinyl]-1,2-benzisothiazol-3-yl}phenoxy}-, methyl ester]
6.5: herbicidal effect rating, SAGPY (Sagittaria pygmaea, L.; [18]) | herbicidal effect rating, ECHORC [4, 16]
3.0: herbicidal effect rating, SAGPY (Sagittaria pygmaea, L.; [16])
7.5: herbicidal effect rating, CYPSE [1, 19] | herbicidal effect rating ORYSAT ([3]; Rate 0.2500 kg/ha)
9.0: herbicidal effect rating, CYPIR (Cyperus iria; [16]) | herbicidal effect rating, CYPIR (Cyperus iria; [17]) | herbicidal effect rating, CYPIR (Cyperus iria; [18]) | herbicidal effect rating, CYPIR (Cyperus iria; [19]) | herbicidal effect rating, SAGPY (Sagittaria pygmaea, L.; [19]) | herbicidal effect rating, MOOVA [2, 16] | herbicidal effect rating, MOOVA [2, 17] | herbicidal effect rating, MOOVA [2, 18] | herbicidal effect rating, MOOVA [2, 19] | herbicidal effect rating, ECHORC [4, 18] | herbicidal effect rating, ECHORC [4, 19]
4.0: herbicidal effect rating, CYPSE [1, 16]
3.5: herbicidal effect rating, SAGPY (Sagittaria pygmaea, L.; [17])
5.5: herbicidal effect rating ORYSAT ([3]; Rate 0.0320 kg/ha) | herbicidal effect rating ORYSAT ([3]; Rate 0.0620 kg/ha) | herbicidal effect rating ORYSAT ([3]; Rate 0.1250 kg/ha)
4.5: herbicidal effect rating, CYPSE [1, 17] | herbicidal effect rating, CYPSE [1, 18]
8.5: herbicidal effect rating, ECHORC [4, 17]
